Reference: patent publication US20210382058A1, “PATIENT SELECTION FOR TREATMENT OF MYC POSITIVE CANCERS WITH INDENOISOQUINOLINES” (Purdue Research Foundation, priority 2020, published 2021)
Like-named read-outs stand apart in the source and are kept apart here.

What was measured:
[1] = molecular target: T1, human topoisomerase I (Homo sapiens, UniProt P11387); conditions: relative topoisomerase I inhibition levels, previously determined, six levels (0 - 5, +++++ = 5); cited from earlier work
T1 sequence (P11387 1-765): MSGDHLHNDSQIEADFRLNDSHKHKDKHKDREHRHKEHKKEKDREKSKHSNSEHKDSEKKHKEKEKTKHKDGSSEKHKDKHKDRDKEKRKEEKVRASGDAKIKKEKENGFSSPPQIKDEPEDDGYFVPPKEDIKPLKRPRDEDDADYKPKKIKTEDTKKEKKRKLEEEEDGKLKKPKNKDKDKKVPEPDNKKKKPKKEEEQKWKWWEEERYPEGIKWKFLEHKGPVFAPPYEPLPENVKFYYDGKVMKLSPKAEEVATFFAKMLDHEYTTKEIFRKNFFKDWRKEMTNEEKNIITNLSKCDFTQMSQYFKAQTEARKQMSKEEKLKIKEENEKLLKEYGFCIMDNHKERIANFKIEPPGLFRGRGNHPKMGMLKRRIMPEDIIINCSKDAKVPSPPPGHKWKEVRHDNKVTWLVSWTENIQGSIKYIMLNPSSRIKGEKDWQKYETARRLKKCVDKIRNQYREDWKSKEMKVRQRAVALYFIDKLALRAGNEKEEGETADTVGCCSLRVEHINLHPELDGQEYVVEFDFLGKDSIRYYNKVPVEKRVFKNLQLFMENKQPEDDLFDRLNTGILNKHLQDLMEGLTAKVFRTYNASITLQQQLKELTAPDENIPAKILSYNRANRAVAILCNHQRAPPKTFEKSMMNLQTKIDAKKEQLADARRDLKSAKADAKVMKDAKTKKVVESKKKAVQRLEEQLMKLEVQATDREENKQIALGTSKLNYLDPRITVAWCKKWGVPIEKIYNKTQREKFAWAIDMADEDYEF

[2] = test system: MYC protein expression in MCF-7 breast cancer cells; assay: Western blotting of MYC protein level in MCF-7 cells; format: cell-based, human; conditions: Homo sapiens, MCF7; western blotting, MCF-7 cells, 0.5, 1, 2, and 4 μM, 24 hours; read-out: MYC Inhibition
Method: MCF-7 cells were incubated with each compound at four concentrations (0.5, 1, 2, and 4 μM) for 24 hours, and the MYC protein levels were measured (FIG. 3A and FIGS. 12 A to 12 F).
Cells were incubated at 37° C. with 5% CO2.
The gels were cut into strips that contained the proteins of interest and transferred to nitrocellulose membrane (I323002, Invitrogen) using an iBlot 2 Dry Transfer Device (Invitrogen). Immunoblotting was carried out according to standard procedures using the ECL detection method. The membrane was hybridized with the following antibodies: monoclonal anti-MYC (1:1000 dilution; rabbit, Cell Signaling Technology), monoclonal anti-GAPDH (1:2000 dilution; rabbit, Cell Signaling Technology).

[3] = test system: NCI-60 cancer cell lines; assay: NCI-60 cancer cell line drug screen (GI50, MGM); format: cell-based, human; conditions: Homo sapiens; for mean GI50 across NCI-60 panel (MGM): average of GI50 values across the entire panel of NCI-60 cancer cell lines
Method: Cancer cells were incubated with the test compounds at five concentrations ranging from 100 μM to 10 nM for 48 h. […] The approximate average of GI50 values across the entire panel of NCI-60 cancer cell lines for each compound was recorded as the MGM value.

[4] = A549, Non-Small Cell Lung Cancer, A549/ATCC, read-out: Antiproliferative Activities [GI50 (μM)]
[5] = CCRF-CEM, Leukemia, CCRF-CEM, read-out: Antiproliferative Activities [GI50 (μM)]
[6] = COLO 205, Colon Cancer, COLO 205, read-out: Antiproliferative Activities [GI50 (μM)]
[7] = EKVX, Non-Small Cell Lung Cancer, EKVX, read-out: Antiproliferative Activities [GI50 (μM)]
[8] = HCC 2998, Colon Cancer, HCC-2998, read-out: Antiproliferative Activities [GI50 (μM)]
[9] = HCT-116, Colon Cancer, HCT-116, read-out: Antiproliferative Activities [GI50 (μM)]
[10] = HL-60, Leukemia, HL-60(TB), read-out: Antiproliferative Activities [GI50 (μM)]
[11] = HOP-62, Non-Small Cell Lung Cancer, HOP-62, read-out: Antiproliferative Activities [GI50 (μM)]
[12] = HOP-92, Non-Small Cell Lung Cancer, HOP-92, read-out: Antiproliferative Activities [GI50 (μM)]
[13] = K562, Leukemia, K-562, read-out: Antiproliferative Activities [GI50 (μM)]
[14] = MOLT-4, Leukemia, MOLT-4, read-out: Antiproliferative Activities [GI50 (μM)]
[15] = NCI-H23, Non-Small Cell Lung Cancer, NCI-H23, read-out: Antiproliferative Activities [GI50 (μM)]
[16] = NCI-H226, Non-Small Cell Lung Cancer, NCI-H226, read-out: Antiproliferative Activities [GI50 (μM)]
[17] = NCI-H322M, Non-Small Cell Lung Cancer, NCI-H322M, read-out: Antiproliferative Activities [GI50 (μM)]
[18] = NCI-H460, Non-Small Cell Lung Cancer, NCI-H460, read-out: Antiproliferative Activities [GI50 (μM)]
[19] = NCI-H522, Non-Small Cell Lung Cancer, NCI-H522, read-out: Antiproliferative Activities [GI50 (μM)]
[20] = RPMI-8226, Leukemia, RPMI-8226, read-out: Antiproliferative Activities [GI50 (μM)]
[21] = Leukemia, SR, read-out: Antiproliferative Activities [GI50 (μM)]

| Structure (SMILES) | Top1 Inhibiton [1] | minimal effective concentration [2] | GI50 [3, 4] | GI50 [3, 5] | GI50 [3, 6] | GI50 [3, 7] | GI50 [3, 8] | GI50 [3, 9] | GI50 [3, 10] | GI50 [3, 11] | GI50 [3, 12] | GI50 [3, 13] | GI50 [3, 14] | GI50 [3, 15] | GI50 [3, 16] | GI50 [3, 17] | GI50 [3, 18] | GI50 [3, 19] | GI50 [3, 20] | mean GI50 across NCI-60 panel (MGM) [3] | other results |
| --- | --- | --- | --- | --- | --- | --- | --- | --- | --- | --- | --- | --- | --- | --- | --- | --- | --- | --- | --- | --- | --- |
| COc1cnc2c(c1)C(=O)c1c-2n(CCCN2CCNCC2)c(=O)c2cc(Cl)ccc12 [Compound 1] | + (weak inhibition, +, MYC expression inhibited at 4.0 μM) |  |  |  |  |  |  |  |  |  |  |  |  |  |  |  |  |  |  |  |  |
| COc1cnc2c(c1)C(=O)c1c-2n(CCCN2CCNCC2)c(=O)c2cc(F)ccc12 [Compound 8] | + (weak inhibition, +, MYC expression inhibited at 4.0 μM) |  |  |  |  |  |  |  |  |  |  |  |  |  |  |  |  |  |  |  |  |
| COc1cc2c3c(n(CCCN4CCN(C)CC4)c(=O)c2cc1OC)-c1cc2c(cc1C3=O)OCO2 [Compound 49] | + (weak inhibition, +, MYC expression inhibited at 4.0 μM) | 4 µM | 18.7 µM | 2.44 µM | 10.3 µM | 17.7 µM | < 0.01 µM | 1.49 µM | 19.5 µM | 18 µM | 19.8 µM | 6.49 µM | < 0.01 µM | 11.9 µM | 13.9 µM | 15.6 µM | 5.81 µM | 15.4 µM | 2.39 µM | 12 µM |  |
| COc1cnc2c(c1)C(=O)c1c-2n(CCCN2CCN(C)CC2)c(=O)c2cc(Cl)ccc12 [Compound 4] | + (weak inhibition, +, MYC expression inhibited at 4.0 μM) |  |  |  |  |  |  |  |  |  |  |  |  |  |  |  |  |  |  |  |  |
| COc1cc2c3c(n(CCCN)c(=O)c2cc1OC)-c1cc2c(cc1C3=O)OCO2 [Compound 45] | +++ (strong inhibition, +++, MYC expression inhibited at 0.5 to 1.0 μM) | 2 µM | 0.11 µM | < 0.01 µM | 0.3 µM |  | 0.1 µM | 0.12 µM | 0.22 µM | 0.06 µM | 1.65 µM | 0.09 µM | < 0.01 µM | 0.13 µM | 1.39 µM |  | 0.02 µM | 0.07 µM | < 0.01 µM | 0.18 µM | GI50 [3, 21]: < 0.01 µM |
| CCNCCCn1c2c(c3ccc(F)cc3c1=O)C(=O)c1cc(OC)cnc1-2 [Compound 7] | ++ (medium inhibition, ++, MYC expression inhibited at 2.0 μM, or no clear dose-dependent MYC inhibition) |  |  |  |  |  |  |  |  |  |  |  |  |  |  |  |  |  |  |  |  |
| COc1cc2c3c(n(CCCNCCN)c(=O)c2cc1OC)-c1cc2c(cc1C3=O)OCO2 [Compound 46] | +++ (strong inhibition, +++, MYC expression inhibited at 0.5 to 1.0 μM) | 4 µM | 0.74 µM | < 0.01 µM | 0.08 µM | 2.06 µM |  | 0.13 µM | 0.25 µM | 0.05 µM | 3.27 µM | 0.28 µM | < 0.01 µM | 0.05 µM | 0.65 µM | 0.53 µM | 0.43 µM | 0.4 µM | 0.48 µM |  |  |
| COc1cc2c3c(n(CCCN4CCC(N)CC4)c(=O)c2cc1OC)-c1cc2c(cc1C3=O)OCO2 [Compound 48] | + (weak inhibition, +, MYC expression inhibited at 4.0 μM) | 4 µM | 0.65 µM | 0.3 µM | 1.14 µM | 1.31 µM | 0.14 µM | 0.12 µM | > 50 µM | 0.42 µM |  | 1.59 µM | 0.42 µM | 0.71 µM | 0.66 µM | 1.05 µM | 0.24 µM | 13.1 µM | 0.2 µM | 1.02 µM |  |
| COc1cc2c3c(n(CCCNC4=NCCS4)c(=O)c2cc1OC)-c1cc2c(cc1C3=O)OCO2 [Compound 50] |  | 2 µM | < 0.01 µM | < 0.01 µM | < 0.01 µM | 2.57 µM | < 0.01 µM | < 0.01 µM | 0.29 µM | < 0.01 µM | < 0.01 µM | < 0.01 µM | < 0.01 µM | 0.02 µM | 0.05 µM | 3.18 µM | < 0.01 µM | 0.02 µM | 0.02 µM | 0.04 µM | GI50 [3, 21]: < 0.01 µM |
| COc1cc2c(=O)n(CCCN3CCOCC3)c3c(c2cc1OCCCN1CCCC1)C(=O)c1cc2c(cc1-3)OCO2 [Compound 55] | ++ (medium inhibition, ++, MYC expression inhibited at 2.0 μM, or no clear dose-dependent MYC inhibition) | 4 µM | 0.11 µM | < 0.01 µM | 0.31 µM |  | 3.32 µM | 0.16 µM | 0.3 µM | 0.19 µM | 1.66 µM | 0.19 µM | < 0.01 µM | 0.71 µM | 2.12 µM | 1 µM | 0.03 µM | 0.04 µM | 0.25 µM | 0.34 µM | GI50 [3, 21]: < 0.01 µM |
| COc1cc2c3c(n(CCCNCCO)c(=O)c2cc1OC)-c1cc2c(cc1C3=O)OCO2 [Compound 44] |  | 0.5 to 1 µM |  |  |  |  |  |  |  |  |  |  |  |  |  |  |  |  |  |  | GI50 ([3]; A549, read-out: Antiproliferative Activities [GI50 (μM)]): 0.03 µM; GI50 ([3]; CCRF-CEM, read-out: Antiproliferative Activities [GI50 (μM)]): < 0.01 µM; GI50 ([3]; COLO 205, read-out: Antiproliferative Activities [GI50 (μM)]): 0.38 µM; GI50 ([3]; EKVX, read-out: Antiproliferative Activities [GI50 (μM)]): 0.26 µM; GI50 ([3]; HCT-116, read-out: Antiproliferative Activities [GI50 (μM)]): 0.07 µM; GI50 ([3]; HL-60, read-out: Antiproliferative Activities [GI50 (μM)]): < 0.01 µM; GI50 ([3]; HOP-62, read-out: Antiproliferative Activities [GI50 (μM)]): 0.01 µM; GI50 ([3]; HOP-92, read-out: Antiproliferative Activities [GI50 (μM)]): 0.83 µM; GI50 ([3]; K562, read-out: Antiproliferative Activities [GI50 (μM)]): 0.02 µM; GI50 ([3]; MOLT-4, read-out: Antiproliferative Activities [GI50 (μM)]): < 0.01 µM; GI50 ([3]; NCI-H23, read-out: Antiproliferative Activities [GI50 (μM)]): < 0.01 µM; GI50 ([3]; NCI-H226, read-out: Antiproliferative Activities [GI50 (μM)]): 0.21 µM; GI50 ([3]; NCI-H322M, read-out: Antiproliferative Activities [GI50 (μM)]): 0.05 µM; GI50 ([3]; NCI-H460, read-out: Antiproliferative Activities [GI50 (μM)]): < 0.01 µM; GI50 ([3]; NCI-H522, read-out: Antiproliferative Activities [GI50 (μM)]): < 0.01 µM; GI50 ([3]; RPMI-8226, read-out: Antiproliferative Activities [GI50 (μM)]): 0.01 µM; GI50 ([3]; read-out: Antiproliferative Activities [GI50 (μM)]): < 0.01 µM; IC50 ([3]; read-out: MGM): 0.06 µM |
